# Like-named read-outs stand apart in the source and are kept apart here.
# Legend:
# [1] = Antagonism to the reserpine induced syndrome (ptosis, rectal temperature); type: in vivo; design: Ptosis: scale not given here
# [2] = tested on: reserpinized swimming rat; assay: Antireserpine effect in a behavior test, swimming rat; type: in vivo
# [3] = Highest tolerated intraperitoneal dose; conditions: in vivo, ip
# [4] = Acute toxicity (LD50), single oral and intravenous administration; type: in vivo, albino male mice; conditions: mouse, in vivo, single administration, within 48 hours
# Protocol: (§1) The acute toxicity (LD50), determined on albino male mice (weight 20-22 g) by a single oral and intravenous administration, is settled within 48 hours.
# [5] = tested on: albino male mice; assay: as above; type: in vivo; conditions: intravenous route
# Protocol: as §1
# [6] = tested on: albino male mice; assay: Spontaneous behavior, motor coordination, muscular tension and nociceptive reflexes; type: in vivo; conditions: up to 200 mg/kg i.v., observation 5 hours
# Source text: Among the compounds of the invention, 4H-1,3-benzoxazin-2-one-3-[N-(β-hydroxyethyl)-piperazino-methyl]-acetohydroxamic acid has been particularly studied and compared with 4H-1,3-benzoxazin-2-one-3-acetohydroxamic acid.
# [7] = reserpine alone, 3.0 mg/kg intraperitoneal
# [8] = 50.0 mg/kg intraperitoneal, + R (reserpine)
# [9] = 25 mg/kg intraperitoneal, + R (reserpine)
# [10] = 100.0 mg/kg intraperitoneal, + R (reserpine)
# [11] = 50 mg/kg intraperitoneal, + R (reserpine)
# [12] = 25.0 mg/kg intraperitoneal, + R (reserpine)
# [13] = Table 4, 50 mg/kg intraperitoneal, reserpine not stated
smiles,measurement,setting,value
"COC(=O)[C@H]1[C@H]2C[C@@H]3c4[nH]c5cc(OC)ccc5c4CCN3C[C@H]2C[C@@H](OC(=O)c2cc(OC)c(OC)c(OC)c2)[C@@H]1OC [Reserpine, reference compound]",Ptosis,[1]; [7],40
same,Rectal temperature,[1]; [7],32.1 °C
same,getting out of a basin full of water,"[2]; in words, reserpinized animals",can no longer get out of a basin full of water
same,Number of the animals which do not get out,"[2]; reserpine alone, 5 mg/kg intraperitoneal",10/10
"CN(C)CCCN1c2ccccc2CCc2ccccc21 [Imipramine, reference compound]",Ptosis,[1]; [8],29
same,Rectal temperature,[1]; [8],36.0 °C
same,MTD,[3]; read-out: highest tolerated dose,50 mg/kg
same,Average time to get out of the basin,[2]; [9],40 s
same,Number of the animals which do not get out,[2]; [9],7/10
"O=C(CN1Cc2ccccc2OC1=O)NO [4H-1,3-benzoxazin-2-one-3-acetohydroxamic acid]",Ptosis,[1]; [8],29
same,Rectal temperature,[1]; [8],36.0 °C
same,Ptosis,[1]; [10],5
same,Rectal temperature,[1]; [10],38.1 °C
same,LD50 at 48 h,"[4]; po, per os",~2000 mg/kg
same,LD50 at 48 h,[4]; intravenous,350 mg/kg
same,Average time to get out of the basin,[2]; [11],25 s
same,Number of the animals which do not get out,[2]; [11],0/10
"O=C(CN1Cc2ccccc2OC1=O)N(O)CN1CCN(CCO)CC1 [4H-1,3-benzoxazin-2-one-3-[N-(β-hydroxyethyl)piperazinomethyl] -acetohydroxamic acid]",Ptosis,[1]; [12],24
same,Rectal temperature,[1]; [12],33.1 °C
same,Ptosis,[1]; [8],19
same,Rectal temperature,[1]; [8],35.6 °C
same,Ptosis,[1]; [10],2
same,Rectal temperature,[1]; [10],37.6 °C
same,antagonizing the hypothermia induced by reserpine,"[1]; in words, Table 1",most active
same,antagonizing the ptosis induced by reserpine,"[1]; in words, Table 1",most active
same,MTD,[3]; read-out: tolerated up to dose,≥ 300 mg/kg
same,times less toxic than Imipramine,[5],about 20 times
same,"less toxic than 4H-1,3-benzoxazin-2-one-3-acetohydroxamic acid",[5]; in words,about half again less toxic
same,LD50 at 48 h,"[4]; po, per os",> 3000 mg/kg
same,LD50 at 48 h,[4]; intravenous,576 mg/kg
same,Average time to get out of the basin,[2]; [9],28 s
same,Number of the animals which do not get out,[2]; [9],0/10
same,getting out of a basin full of water,"[2]; in words, pretreated plus reserpine, versus control animals",manage to get out of the basin within a period of time slightly longer than that of the control animals
same,motor apparatus coordination,[6],does not modify
same,muscular tension,[6],does not modify
same,nociceptive reflexes,[6],does not modify
same,spontaneous behavior,[6],does not modify
"CCN(CC)CCN(CC)CN(O)C(=O)CN1Cc2ccccc2OC1=O [Example 2, 4H-1,3-benzoxazin-2-one-3-[(N,N,N'triethyl)-ethylenediaminomethyl]-acetohydroxamic acid]",LD50 at 48 h,"[4]; po, per os",2550 mg/kg
same,LD50 at 48 h,[4]; intravenous,328 mg/kg
same,Average time to get out of the basin,[2]; [13],10 s
same,Number of the animals which do not get out,[2]; [13],1/10
same,test results,[2]; in words,good test results
